Data taken from patent US9326506B2, “Preparation method, agricultural composition and applications of natural brassinolide analogs” (CHENGDU NEWSUN CROPSCIENCE CO., LTD, priority 2012, dated 2016).

Tested on: rice
Assay: Low temperature assay on rice seedlings
Type: in vivo
Protocol: According to a low temperature assay, we measured parameters including plant height, number of leaf, area of leaf, number of tiller, weight of root at low temperature to completely determine effects of the natural brassinolide analogues on the resistance to low temperature of a plant.
The natural brassinolide analogues, BR1, BR2, BR3, BR4, BR5 and BR6, used herein, were those prepared by the method of Example 1. Respectively the analogues were dissolved into 95% (V/V) ethanol solution, and then diluted with pure water to 1 mg/L, 0.1 mg/L, 0.01 mg/L, 0.001 mg/L and 0.0001 mg/L. In addition, pure water was used as a control.
After rice seeds were disinfected by using 5% sodium hypochlorite solution treatment, they were rinsed with distilled water until their pH>7, placed into a petri dish in a dark incubator, and cultured by using water at 30° C.±2° C. for 9 days. Then respectively the nine-day-old etiolated seedlings of rice were immersed in the above solutions containing different concentrations of the natural brassinolide analogues or pure water, and cultured at the temperature of 1° C., 2° C., 3° C., 4° C. and 5° C. for 24 hr. The parameters including plant height, area of leaf and weight of root after 3, 6, 9 and 12 days and number of leaf and number of tiller after 12 days were measured.

Q: `CC(C)(O)CC[C@@H](O)[C@](C)(O)[C@H]1CC[C@@]2(O)[C@@H]3CC(=O)[C@@H]4C[C@@H](O)[C@@H](O)C[C@]4(C)[C@H]3CC[C@]12C` [BR6] was tested. Which Area of leaf (0.001 mg/l, 2 °C, 6 days) did it give?
A: 11.8 cm^2

Q: And the Height (0.001 mg/l, 2 °C, 6 days)?
A: 7.1 cm

Q: And the Weight of root (0.001 mg/l, 2 °C, 6 days)?
A: 3.0 g

Q: And the Area of leaf (0.001 mg/l, 2 °C, 9 days)?
A: 12.7 cm^2

Q: And the Height (0.001 mg/l, 2 °C, 9 days)?
A: 7.2 cm

Q: What about the Weight of root (0.001 mg/l, 2 °C, 9 days) of the same molecule?
A: 3.2 g

Q: What about the Area of leaf (0.001 mg/l, 2 °C, 12 days) of the same molecule?
A: 13.1 cm^2

Q: And the Height (0.001 mg/l, 2 °C, 12 days)?
A: 7.3 cm

Q: And the Number of leaf (0.001 mg/l, 2 °C, 12 days)?
A: 3

Q: What about the Number of tiller (0.001 mg/l, 2 °C, 12 days) of the same molecule?
A: 3

Q: And the Weight of root (0.001 mg/l, 2 °C, 12 days)?
A: 3.9 g

Q: What about the Area of leaf (0.001 mg/l, 3 °C, 3 days) of the same molecule?
A: 10.4 cm^2

Q: And the Height (0.001 mg/l, 3 °C, 3 days)?
A: 7 cm

Q: What about the Weight of root (0.001 mg/l, 3 °C, 3 days) of the same molecule?
A: 2.5 g

Q: What about the Area of leaf (0.001 mg/l, 3 °C, 6 days) of the same molecule?
A: 12 cm^2

Q: What about the Height (0.001 mg/l, 3 °C, 6 days) of the same molecule?
A: 7.1 cm

Q: And the Weight of root (0.001 mg/l, 3 °C, 6 days)?
A: 2.6 g

Q: What about the Area of leaf (0.001 mg/l, 3 °C, 9 days) of the same molecule?
A: 12.6 cm^2

Q: What about the Height (0.001 mg/l, 3 °C, 9 days) of the same molecule?
A: 7.4 cm

Q: And the Weight of root (0.001 mg/l, 3 °C, 9 days)?
A: 2.9 g

Q: What about the Area of leaf (0.001 mg/l, 3 °C, 12 days) of the same molecule?
A: 13.2 cm^2

Q: What about the Height (0.001 mg/l, 3 °C, 12 days) of the same molecule?
A: 7.4 cm

Q: And the Number of leaf (0.001 mg/l, 3 °C, 12 days)?
A: 3

Q: And the Number of tiller (0.001 mg/l, 3 °C, 12 days)?
A: 2

Q: And the Weight of root (0.001 mg/l, 3 °C, 12 days)?
A: 2.9 g

Q: What about the Area of leaf (0.001 mg/l, 4 °C, 3 days) of the same molecule?
A: 10.6 cm^2

Q: What about the Height (0.001 mg/l, 4 °C, 3 days) of the same molecule?
A: 7.1 cm

Q: What about the Weight of root (0.001 mg/l, 4 °C, 3 days) of the same molecule?
A: 2.5 g

Q: And the Area of leaf (0.001 mg/l, 4 °C, 6 days)?
A: 12.4 cm^2

Q: What about the Height (0.001 mg/l, 4 °C, 6 days) of the same molecule?
A: 7.3 cm

Q: What about the Weight of root (0.001 mg/l, 4 °C, 6 days) of the same molecule?
A: 2.6 g

Q: What about the Area of leaf (0.001 mg/l, 4 °C, 9 days) of the same molecule?
A: 13.1 cm^2

Q: And the Height (0.001 mg/l, 4 °C, 9 days)?
A: 7.5 cm

Q: And the Weight of root (0.001 mg/l, 4 °C, 9 days)?
A: 2.9 g

Q: What about the Area of leaf (0.001 mg/l, 4 °C, 12 days) of the same molecule?
A: 13.5 cm^2

Q: What about the Height (0.001 mg/l, 4 °C, 12 days) of the same molecule?
A: 7.7 cm

Q: And the Number of leaf (0.001 mg/l, 4 °C, 12 days)?
A: 3

Q: And the Number of tiller (0.001 mg/l, 4 °C, 12 days)?
A: 2

Q: And the Weight of root (0.001 mg/l, 4 °C, 12 days)?
A: 2.9 g

Q: What about the Area of leaf (0.001 mg/l, 5 °C, 3 days) of the same molecule?
A: 10.7 cm^2

Q: And the Height (0.001 mg/l, 5 °C, 3 days)?
A: 7.5 cm

Q: And the Weight of root (0.001 mg/l, 5 °C, 3 days)?
A: 2.8 g

Q: What about the Area of leaf (0.001 mg/l, 5 °C, 6 days) of the same molecule?
A: 14.6 cm^2

Q: What about the Height (0.001 mg/l, 5 °C, 6 days) of the same molecule?
A: 7.8 cm

Q: And the Weight of root (0.001 mg/l, 5 °C, 6 days)?
A: 2.7 g

Q: What about the Area of leaf (0.001 mg/l, 5 °C, 9 days) of the same molecule?
A: 16 cm^2

Q: What about the Height (0.001 mg/l, 5 °C, 9 days) of the same molecule?
A: 7.9 cm

Q: And the Weight of root (0.001 mg/l, 5 °C, 9 days)?
A: 3.0 g

Q: And the Area of leaf (0.001 mg/l, 5 °C, 12 days)?
A: 17 cm^2

Q: What about the Height (0.001 mg/l, 5 °C, 12 days) of the same molecule?
A: 8.2 cm

Q: And the Number of leaf (0.001 mg/l, 5 °C, 12 days)?
A: 3

Q: And the Number of tiller (0.001 mg/l, 5 °C, 12 days)?
A: 3

Q: And the Weight of root (0.001 mg/l, 5 °C, 12 days)?
A: 3.7 g

Q: And the Area of leaf (0.01 mg/l, 1 °C, 3 days)?
A: 10 cm^2

Q: What about the Height (0.01 mg/l, 1 °C, 3 days) of the same molecule?
A: 7.0 cm

Q: What about the Weight of root (0.01 mg/l, 1 °C, 3 days) of the same molecule?
A: 2.8 g

Q: What about the Area of leaf (0.01 mg/l, 1 °C, 6 days) of the same molecule?
A: 11.9 cm^2

Q: And the Height (0.01 mg/l, 1 °C, 6 days)?
A: 7.2 cm

Q: And the Weight of root (0.01 mg/l, 1 °C, 6 days)?
A: 3.0 g

Q: What about the Area of leaf (0.01 mg/l, 1 °C, 9 days) of the same molecule?
A: 12.9 cm^2

Q: What about the Height (0.01 mg/l, 1 °C, 9 days) of the same molecule?
A: 7.3 cm

Q: What about the Weight of root (0.01 mg/l, 1 °C, 9 days) of the same molecule?
A: 3.4 g

Q: What about the Area of leaf (0.01 mg/l, 1 °C, 12 days) of the same molecule?
A: 13.6 cm^2

Q: What about the Height (0.01 mg/l, 1 °C, 12 days) of the same molecule?
A: 7.4 cm

Q: And the Number of leaf (0.01 mg/l, 1 °C, 12 days)?
A: 3

Q: What about the Number of tiller (0.01 mg/l, 1 °C, 12 days) of the same molecule?
A: 3

Q: And the Weight of root (0.01 mg/l, 1 °C, 12 days)?
A: 3.9 g

Q: What about the Area of leaf (0.01 mg/l, 2 °C, 3 days) of the same molecule?
A: 10.6 cm^2

Q: And the Height (0.01 mg/l, 2 °C, 3 days)?
A: 7.0 cm

Q: What about the Weight of root (0.01 mg/l, 2 °C, 3 days) of the same molecule?
A: 2.8 g

Q: What about the Area of leaf (0.01 mg/l, 2 °C, 6 days) of the same molecule?
A: 11.8 cm^2

Q: What about the Height (0.01 mg/l, 2 °C, 6 days) of the same molecule?
A: 7.2 cm

Q: And the Weight of root (0.01 mg/l, 2 °C, 6 days)?
A: 3.0 g

Q: And the Area of leaf (0.01 mg/l, 2 °C, 9 days)?
A: 12.8 cm^2

Q: And the Height (0.01 mg/l, 2 °C, 9 days)?
A: 7.3 cm

Q: What about the Weight of root (0.01 mg/l, 2 °C, 9 days) of the same molecule?
A: 3.1 g

Q: What about the Area of leaf (0.01 mg/l, 2 °C, 12 days) of the same molecule?
A: 13.4 cm^2

Q: And the Height (0.01 mg/l, 2 °C, 12 days)?
A: 7.5 cm

Q: What about the Number of leaf (0.01 mg/l, 2 °C, 12 days) of the same molecule?
A: 3

Q: What about the Number of tiller (0.01 mg/l, 2 °C, 12 days) of the same molecule?
A: 3

Q: And the Weight of root (0.01 mg/l, 2 °C, 12 days)?
A: 3.2 g

Q: What about the Area of leaf (0.01 mg/l, 3 °C, 3 days) of the same molecule?
A: 10.4 cm^2

Q: And the Height (0.01 mg/l, 3 °C, 3 days)?
A: 7 cm

Q: And the Weight of root (0.01 mg/l, 3 °C, 3 days)?
A: 2.5 g

Q: What about the Area of leaf (0.01 mg/l, 3 °C, 6 days) of the same molecule?
A: 12 cm^2

Q: What about the Height (0.01 mg/l, 3 °C, 6 days) of the same molecule?
A: 7.2 cm

Q: What about the Weight of root (0.01 mg/l, 3 °C, 6 days) of the same molecule?
A: 2.6 g

Q: And the Area of leaf (0.01 mg/l, 3 °C, 9 days)?
A: 12.6 cm^2
